Ten compounds from ChEMBL document CHEMBL3425485 (J Med Chem, 2015) can be followed below.

The structures appear in SMILES notation. Calls of active or inactive are those of the source.

Usually clearance stands for the volume of plasma or blood freed of the substance per unit of time. Low values mean inefficient removal, high ones efficient removal. As usually defined, the microsomal CLint is the rate of metabolic loss divided by the concentration. A lower microsomal CLint goes with greater metabolic stability. As usually defined, the IC50 is the concentration needed to halve the response being measured. Lower therefore signals inhibition by little substance. One may read the CC50 as the concentration that lowers cell viability or growth by half. For orientation: IC90 means the concentration needed for an effect of 90%. The fraction unbound is free concentration divided by total concentration. The inhibition is the share of the control response that was lost under treatment. In general, Vd refers to a proportionality between amount in the body and measured concentration, not a real space. Broadly, the half-life is the time needed for the level to fall by half in the phase considered. Low values mean rapid decline, high ones slow decline. As usually defined, the bioavailability is dose-corrected exposure relative to a reference, in per cent.

One series has as its target T1, Cytochrome P450 1A1 (Homo sapiens, UniProt P04798).
T1 sequence (P04798 whole entry): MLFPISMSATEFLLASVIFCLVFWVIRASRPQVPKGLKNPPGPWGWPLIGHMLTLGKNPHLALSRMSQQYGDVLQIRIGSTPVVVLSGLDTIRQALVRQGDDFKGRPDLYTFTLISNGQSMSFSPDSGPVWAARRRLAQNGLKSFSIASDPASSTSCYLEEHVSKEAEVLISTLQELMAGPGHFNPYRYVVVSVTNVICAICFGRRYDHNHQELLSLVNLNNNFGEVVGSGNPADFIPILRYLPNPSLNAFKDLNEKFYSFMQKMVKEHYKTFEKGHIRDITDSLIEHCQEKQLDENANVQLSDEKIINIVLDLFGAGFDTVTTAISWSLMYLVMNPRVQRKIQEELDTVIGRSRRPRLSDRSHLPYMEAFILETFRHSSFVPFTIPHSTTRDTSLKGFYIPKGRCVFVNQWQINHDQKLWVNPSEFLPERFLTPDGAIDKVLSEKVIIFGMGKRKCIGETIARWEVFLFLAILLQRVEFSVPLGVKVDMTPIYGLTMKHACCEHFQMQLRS
The series is described as follows: Drug metabolism assessed as recombinant CYP1A1 (unknown origin)-mediated compound intrinsic clearance measured per mg of protein. The class given is ADME. Particulars: recombinant enzyme.

Series [1] can be described thus: Total plasma clearance in iv dosed rat. The class given is ADME, organism-based.
The nature of series [2]: Intrinsic clearance in human liver microsomes measured per mg of protein. For orientation: Microsomes from liver hold many membrane-bound enzymes, among them those of drug oxidation.
The target of series [3] is Poly [ADP-ribose] polymerase 1 (Homo sapiens, UniProt P09874).
Description: Inhibition of PARP1 (unknown origin)
Series [4] is described as follows: Drug metabolism in rat lung microsomes assessed as compound turnover. The class given is ADME.
In series [5] the test system is HeLa. The series is described as follows: Selectivity for BRCA1 shRNA-transfected human HeLa cells over wild type human HeLa cells.
The nature of series [6]: Drug metabolism in rat kidney microsomes assessed as compound turnover. In kind it is ADME.
A short description of series [7]: in vitro. The conditions noted are these: human, UWB1.289 cells expressing BRCA1.
Description: Cytotoxicity against human UWB1.289 cells expressing BRCA1 assessed as inhibition of cell proliferation after 5 to 7 days by CellTiter-Blue assay
The subject of series [8] is HeLa. Nature of the series: Cytotoxicity against human HeLa cells transfected with BRCA1 shRNA assessed as reduction of cell viability after 5 to 7 days by CellTiter-Blue assay. The class given is functional. In general terms: The colour change of resazurin is a common sign of viable cells or microbes.
A further series deals with DoTc2-4510. The series is described as follows: cells. The conditions noted are these: Homo sapiens.
Series [9] has as its target T2, PARP 1, 2 and 3 (Homo sapiens) (UniProt P09874+Q9Y6F1+Q9UGN5). Particulars: A2780.
Description: Inhibition of PARP in human A2780 cells assessed as inhibition of hydrogen peroxide-induced PARylation by cell-based assay
Series [10] concerns A549. The series is described as follows: cells. Particulars: Homo sapiens.
Description: Cytotoxicity against human A549 cells transfected with BRCA2 shRNA assessed as inhibition of cell proliferation after 5 to 7 days by CellTiter-Blue assay
Series [11] in a line: Fraction unbound in mouse plasma.
Series [12] addresses T2, PARP 1, 2 and 3 (Homo sapiens). The conditions noted are these: CAPAN-1, 50 to 100 mg/kg.
Description: Inhibition of PARP activity in tumor of immunocompromised mouse xenografted with BRCA2-deficient human Capan1 cells assessed as incorporation of [3H]NAD in PAR chains in response to nicked DNA at 50 to 100 mg/kg, po measured after 24 hrs
For series [13], the system named is HeLa. Nature of the series: cells. Particulars: Homo sapiens.
Description: Cytotoxicity against wild type human HeLa cells assessed as inhibition of cell proliferation after 5 to 7 days by CellTiter-Blue assay
Series [14] deals with Plasma. The series is described as follows: Plasma trough concentration in human at 300 mg/day. Particulars: read-out: Cmin.
For series [15], the system named is A549. The series is described as follows: cells. The conditions noted are these: Homo sapiens. This is another data set of the same source.
Description: Cytotoxicity against wild type human A549 cells assessed as inhibition of cell proliferation after 5 to 7 days by CellTiter-Blue assay
Series [16] can be described thus: Antitumor activity against BRCA2-deficient human Capan1 cells xenografted in immunocompromised mouse assessed as tumor growth inhibition at 80 mg/kg, po qd for 2 to 4 weeks. Particulars: CAPAN-1, po, read-out: TGI. In general terms: Xenograft models place foreign cells or tissue in a host animal.
The test system of series [17] is Plasma. The series is described as follows: Plasma trough concentration in human at 40 mg/day. Particulars: read-out: Cmin.
A short description of the next series: in vivo. Particulars: dog, plasma.
Series [18] can be described thus: cells. Particulars: Homo sapiens, UWB1289.
Description: Cytotoxicity against human UWB1.289 cells carrying BRCA1 mutant assessed as inhibition of cell proliferation after 5 to 7 days by CellTiter-Blue assay
Series [19] can be described thus: Cytotoxicity against human SUM1315MO2 cells carrying BRCA1 mutant assessed as inhibition of cell proliferation after 12 days by CellTiter-Blue assay. Particulars: SUM1315MO2, 288 h.
For series [20], the target named is T2, PARP 1, 2 and 3 (Homo sapiens). Particulars: HeLa.
Description: Inhibition of PARP in human HeLa cells assessed as inhibition of hydrogen peroxide-induced PARylation by cell-based assay
The target is the same in series [21]. Particulars: CAPAN-1.
Description: Inhibition of PARP in BRCA2-deficient human CAPAN-1 cells assessed as inhibition of hydrogen peroxide-induced PARylation by cell-based assay
Series [22] is described as follows: Plasma concentration in CD-1 mouse at 50 mg/kg, po after 24 hrs.
Series [23] can be described thus: cells. The conditions noted are these: Homo sapiens, SUM149PT.
Description: Cytotoxicity against human SUM149PT cells carrying BRCA1 mutant assessed as inhibition of cell proliferation after 5 to 7 days by CellTiter-Blue assay
The nature of series [24]: Drug metabolism in iv dosed bile cannulated rat assessed as parent compound recovery.
Series [25] has as its target T2, PARP 1, 2 and 3 (Homo sapiens). The conditions noted are these: MDA-MB-436, 50 to 100 mg/kg.
Description: Inhibition of PARP activity in tumor of immunocompromised mouse xenografted with human MDA-MB-436 cells harboring BRCA1 mutant assessed as incorporation of [3H]NAD in PAR chains in response to nicked DNA at 50 to 100 mg/kg, po measured after 24 hrs
The species named for another series is Rattus norvegicus. Nature of the series: Terminal half life in rat. In kind it is ADME, organism-based. Particulars: in vivo.
The nature of series [26]: Drug metabolism in iv dosed bile cannulated dog assessed as parent compound recovery.
A short description of series [27]: Volume of distribution at steady state in dog. Particulars: in vivo.
Series [28] in a line: Volume of distribution at steady state in rat. The conditions noted are these: in vivo.
The nature of series [29]: Fraction unbound in human plasma.
Series [30] concerns MDA-MB-436. The conditions noted are these: Homo sapiens, 50 mg/kg.
Description: Antitumor activity against human MDA-MB-436 cells harboring BRCA1 mutant xenografted in immunocompromised mouse assessed as tumor growth inhibition at 50 mg/kg, po administered daily
A short description of series [31]: Terminal half life in dog. The conditions noted are these: in vivo.
A short description of series [32]: Oral bioavailability in dog. The conditions noted are these: in vivo.
Series [33] concerns MDA-MB-436. The conditions noted are these: Homo sapiens, 80 mg/kg.
Description: Antitumor activity against human MDA-MB-436 cells harboring BRCA1 mutant xenografted in immunocompromised mouse assessed as tumor growth inhibition at 80 mg/kg, po qd for 1 to 2 weeks
Series [34] can be described thus: in vitro. Particulars: human, BT20 cells.
Description: Cytotoxicity against human BT20 cells assessed as inhibition of cell proliferation after 5 to 7 days by CellTiter-Blue assay
The nature of series [35]: Plasma clearance in rat. In kind it is ADME.

Poly [ADP-ribose] polymerase 1, sequence (P09874 whole entry): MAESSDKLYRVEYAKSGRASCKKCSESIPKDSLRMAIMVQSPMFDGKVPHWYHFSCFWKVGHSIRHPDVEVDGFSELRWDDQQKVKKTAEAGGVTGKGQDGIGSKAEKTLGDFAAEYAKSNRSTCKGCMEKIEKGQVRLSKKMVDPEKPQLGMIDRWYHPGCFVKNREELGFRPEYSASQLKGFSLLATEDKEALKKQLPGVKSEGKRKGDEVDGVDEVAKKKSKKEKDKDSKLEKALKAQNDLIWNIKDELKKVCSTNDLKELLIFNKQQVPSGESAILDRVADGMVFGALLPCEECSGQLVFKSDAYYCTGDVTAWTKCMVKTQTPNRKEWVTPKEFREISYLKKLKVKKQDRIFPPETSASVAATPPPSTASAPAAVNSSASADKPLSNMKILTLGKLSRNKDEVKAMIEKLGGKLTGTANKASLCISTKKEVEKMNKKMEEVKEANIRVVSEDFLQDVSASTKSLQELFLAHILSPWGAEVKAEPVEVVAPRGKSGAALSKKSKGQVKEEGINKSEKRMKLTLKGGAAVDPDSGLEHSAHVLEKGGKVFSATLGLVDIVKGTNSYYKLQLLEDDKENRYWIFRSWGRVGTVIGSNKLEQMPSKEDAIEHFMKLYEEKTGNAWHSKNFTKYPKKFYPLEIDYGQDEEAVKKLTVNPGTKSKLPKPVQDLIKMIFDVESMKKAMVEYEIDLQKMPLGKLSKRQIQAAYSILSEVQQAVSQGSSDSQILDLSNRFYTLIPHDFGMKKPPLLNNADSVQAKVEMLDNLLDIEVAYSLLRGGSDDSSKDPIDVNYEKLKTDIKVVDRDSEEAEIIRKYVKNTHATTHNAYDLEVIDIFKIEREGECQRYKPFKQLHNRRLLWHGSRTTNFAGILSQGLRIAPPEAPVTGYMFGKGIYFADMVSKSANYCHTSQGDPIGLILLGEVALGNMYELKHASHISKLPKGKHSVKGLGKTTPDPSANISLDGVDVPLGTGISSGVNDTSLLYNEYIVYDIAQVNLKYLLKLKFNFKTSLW
Description for DoTc2-4510: Cytotoxicity against human DoTc2-4510 cells carrying BRCA2 mutant assessed as inhibition of cell proliferation after 5 to 7 days by CellTiter-Blue assay

As to `NC(=O)c1cccc2cn(-c3ccc4c(c3)CCNC4)nc12`, at Cytochrome P450 1A1, the CL was 0.7 µL/min. Further, in series [1], the clearance turned out to be 30 mL/min/kg.

Consider `NC(=O)c1cccc2cn(-c3ccc(C4CCCNC4)cc3)nc12` (stereo not drawn), for which, at Cytochrome P450 1A1, the CL worked out at 11 µL/min.

`NC(=O)c1cccc2cn(-c3ccc([C@H]4CCCNC4)cc3)nc12` yielded a microsomal CLint in series [2] of 4 µL/min/mg. Besides, the CL on Cytochrome P450 1A1 was determined as 7 µL/min.

`CNC(C)(C)c1ccc(-n2cc3cccc(C(N)=O)c3n2)cc1`: on Cytochrome P450 1A1, the CL came to 0.4 µL/min. In addition, the clearance in series [1] stood at 30 mL/min/kg.

Take `O=C(O)c1cccc2cn(-c3ccc([C@@H]4CCCNC4)cc3)nc12`: in series [3], half-maximal inhibition (IC50) required 3.8 nM.

Regarding `CN(C)Cc1ccc(-n2cc3cccc(C(N)=O)c3n2)cc1`, the CL on Cytochrome P450 1A1 stood at 8.7 µL/min. The Drug metabolism result in series [4] and in series [6] was “metabolite_detected” in each case. Also, in the series with HeLa [5], the Selectivity ratio is listed as greater than 10.

As to `NC(=O)c1cccc2cn(-c3ccc([C@@H]4CCCNC4)cc3)nc12` [NIRAPARIB], the CC50 in the series “in vitro [7]” worked out at 975 nM; in the series with HeLa [8], 34 nM; with DoTc2-4510, 23 nM; in the series on A549 [10], 11 nM; in the series on HeLa [13] it was 852 nM; with A549 [15], 1760 nM. Besides, the CC50 in “cells [18]” was 56 nM; in [19], 20 nM; in the series “cells [23]”, 24 nM; in the series “in vitro [34]”, 2200 nM. The compound also came in with a microsomal CLint in series [2] of 3 µL/min/mg. Moreover, at Cytochrome P450 1A1, the CL worked out at 16 µL/min. Also, the figures for the IC90 in [9], in series [20] and in [21] were 52 nM, 46 nM and 50 nM, respectively. In addition, the fraction unbound in series [11] was determined as 0.26; in [29] it was 0.16. Besides, the inhibition in series [12] and in series [25] was greater than 90% each time. Besides, the concentration in the series on Plasma [14] is greater than 2000 nM; with Plasma [17], 288 nM. Also, in [16], the inhibition in vivo at 80 mg/kg was 60%. This compound also yielded a clearance in the series “in vivo” of 31 mL/min/kg. Further, the concentration at 24 h in series [22] turned out to be 100 nM. In addition, the dose excreted is 45% in [24] and less than 5% in [26]. For the same compound, in the series filed under Rattus norvegicus, the “beta t1/2” value was 3.4 h. Besides, the results for the Vd in [27] and in [28] were 12.3 L/kg and 6.9 L/kg, respectively. Also, in the series with MDA-MB-436 [30], the inhibition entry was “Active”. In series [31], this compound showed a half-life of 5.7 h. Besides, the bioavailability in series [32] came to 57%. Besides, the TGI entry in the series on MDA-MB-436 [33] was “Active”.

For `CNCc1ccc(-n2cc3cccc(C(N)=O)c3n2)cc1`, the CL on Cytochrome P450 1A1 was found to be 6 µL/min.

Turning to `NC(=O)c1cccc2cn(-c3ccccc3)nc12`, in [35], the clearance worked out at 30 mL/min/kg.

In the case of `NC(=O)c1cccc2cn(-c3ccc(C4CCCN4)cc3)nc12` (stereo not drawn), on Cytochrome P450 1A1, the CL turned out to be 22 µL/min.
